Measurements as given in US10844013B2, “Phenyl amino piperidine mTORC inhibitors and uses thereof” (Navitor Pharmaceuticals, Inc., priority 2016, dated 2020).
pIC50: −log10 of the molar value. Counter-ions that a name gives are not always drawn. Like-named read-outs stand apart in the source and are kept apart here.

Legend:
Assay type in all cases: cell-based
[1] = test system: pAKT (p-Akt 1/2/3 (Ser473)) in MCF-7 cells; experiment: AlphaLISA Ultra pAKT assay
Method in brief: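 MCF-7 cells seeded 20-24 h, medium refreshed for 2 h, then treated with compounds for 2 h at 0.5% final DMSO. Lysates frozen at −80 °C, then pAKT detected by AlphaLISA with acceptor and donor beads, 2 h each.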

[2] = test system: MCF-7 cells; experiment: Radioactive glucose uptake in MCF-7 cells; details: Homo sapiens, MCF7, 3H-2DG uptake
Protocol: Example 157: Radioactive Glucose Uptake in MCF-7 Cells
Assay Protocol • 1. Seed approximately 12,000 MCF-7 cells cultured without insulin per well in 96-well plates (BIOCOAT, #356690) and let the cells sit in hood for 30 min. (Cell culture medium: DMEM+10% FBS). • 2. Put the cell culture plates in TC incubator (5% CO2, 37° C.) and incubate overnight. • 3. Take out the cell plates and wash with prewarmed KRH buffer (37° C.) three times using BioTek plate washer. (KRH buffer preparation: 136 mM NaCl, 4.7 mM KCl, 1.25 mM MgCl2, 1.2 mM CaCl2), 20 mM HEPES, 0.1 mg/ml sodium pyruvate, 0.1% BSA, pH 7.4). • 4. Compound preparation and treatment: • a) Add 12 ul compound stock in 100% DMSO to the first column of Echo LDV plate • b) Serially dilute the compound solution in 100% DMSO (4 uL+8 uL DMSO) using Bravo for 9 doses • c) Dispense 350 nL compounds using Echo to the working plate. • d) i) Without compound preincubation condition, dispense 116 uL KRH buffer containing tritiated 2-deoxy-D-glucose (3H-2DG) and 2-deoxy-D-glucose (2DG) to the working plate and mix. • ii. With compound preincubation condition, dispense 110 uL KRH buffer only to the working plates and mix • e) Keep the compound working plate at 37° C. incubator until use • 5. Discard the KRH buffer (cells were kept in KRH buffer for 10-15 min before 2-DG addition) and transfer 100 uL compound working solution out to the cell culture plate using Bravo. Incubate for 20 mins at 37° C. (2DG final at 0.2 mM, 3H-2DG at 10 uCi/mL). • 6. Add prewarmed 50 uL KRH buffer (37° C.) containing 60 mM cold 2DG to the wells to stop the 2DG uptake using Multidrop combi • 7. Wash the cells with prewarmed PBS three times using BioTek plate washer • 8. Add 50 uL lysis buffer (0.1 M NaOH) into the assay plate to lyse the cells using Bravo and shake at 800 rpm for 30 min. • 9. Mix and transfer 20 uL lysate to a new white plate (Corning, #3610) and add 200 uL MicroScint-20 using Bravo • 10. Shake the plate at 1000 rpm for 30 min and count in a MicroBeta plate reader.

[3] = test system: pS6K1 (p-p70 S6 Kinase (Thr389)) in MCF-7 cells; experiment: AlphaLISA Ultra pS6K1 assay; details: Homo sapiens, MCF7, 2 h, 2 hours compound incubation
Method in brief: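 MCF-7 cells seeded 20–24 h, medium refreshed 2 h, then treated 2 h with compound (0.5% DMSO final). Lysates probed for Thr389-phosphorylated p70 S6K by AlphaLISA Ultra, 2 h acceptor then 2 h donor bead incubation, read on a multimode reader.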

[4] = Homo sapiens, MCF7, 2 hours compound incubation

| Structure (SMILES) | pIC50 ([1]; 2 hours compound incubation, read-out: pAKT in MCF7: IC50) | pIC50 [2] | pIC50 [1, 4] | pIC50 [3] |
| --- | --- | --- | --- | --- |
| Cc1cc(C)c(C(=O)N2CCN(c3cccnc3[S@](C)(=N)=O)CC2)c(C)c1NC1CCN(c2ncccc2Cl)CC1 (stereo in doubt) [I-176, (3-(4-(3-((1-(3-chloropyridin-2-yl)piperidin-4-yl)amino)-2,4,6-trimethylbenzoyl)piperazin-1-yl)pyridin-2-yl)(imino)(methyl)-16-sulfanone Trifluoroacetate Salt] | < 5.00 | 6.00 to 8.00 |  |  |
| Cc1cc(C)c(C(=O)N2CCN(c3ccccc3S(N)(=O)=O)CC2)cc1N[C@H]1CCN(c2ccccc2C#N)C[C@H]1C [I-169, 2-(4-(5-(((3R,4S)-1-(2-cyanophenyl)-3-methylpiperidin-4-yl)amino)-2,4-dimethylbenzoyl)piperazin-1-yl)benzenesulfonamide] |  |  | < 5.00 | 5.52 to 6.00 |
| Cc1cc(C)c(C(=O)N2CCN(c3ccccc3S(N)(=O)=O)CC2)cc1N[C@@H]1CCN(c2ccccc2C#N)C[C@H]1C [I-170, 2-(4-(5-(((3R,4R)-1-(2-cyanophenyl)-3-methylpiperidin-4-yl)amino)-2,4-dimethylbenzoyl)piperazin-1-yl)benzenesulfonamide] |  |  | < 5.00 | 6.00 to 8.00 |
| Cc1cc(C(F)(F)F)c(NC2CCN(c3ccccc3C#N)CC2)cc1C(=O)N1CCN(c2cccnc2S(N)(=O)=O)CC1 [I-172, 3-(4-(5-((1-(2-cyanophenyl)piperidin-4-yl)amino)-2-methyl-4-(trifluoromethyl)benzoyl)piperazin-1-yl)pyridine-2-sulfonamide] |  |  | < 5.00 | 5.30 to 5.52 |
| Cc1cc(C)c(C(=O)N2CCN(c3c(F)cc(F)cc3S(N)(=O)=O)CC2)cc1NC1CCN(c2ccccc2C#N)CC1 [I-174, 2-(4-(5-((1-(2-cyanophenyl)piperidin-4-yl)amino)-2,4-dimethylbenzoyl)piperazin-1-yl)-3,5-difluorobenzenesulfonamide] |  |  | < 5.00 | 6.00 to 8.00 |
| Cc1cc(C)c(C(=O)N2CCN(c3cccnc3[S@](C)(=N)=O)CC2)c(C)c1NC1CCN(c2ncccc2Cl)CC1 [I-175, (R)-(3-(4-(3-((1-(3-chloropyridin-2-yl)piperidin-4-yl)amino)-2,4,6-trimethylbenzoyl)piperazin-1-yl)pyridin-2-yl)(imino)(methyl)-λ^6-sulfanone Trifluoroacetate Salt] |  |  | < 5.00 | 6.00 to 8.00 |
| Cc1cc(C)c(C(=O)N2CCN(c3nnco3)[C@H](CO)C2)cc1NC1CCN(c2ccccc2C#N)CC1 [I-177, (S)-2-(4-((5-(3-(hydroxymethyl)-4-(1,3,4-oxadiazol-2-yl)piperazine-1-carbonyl)-2,4-dimethylphenyl)amino)piperidin-1-yl)benzonitrile] |  |  | < 5.00 | 5.52 to 6.00 |
| Cc1cc(C)c(C(=O)N2CCN(c3ncccc3S(N)(=O)=O)CC2)c(C)c1N[C@H]1CCN(c2ccccc2C#N)C[C@H]1C [I-178, 2-(4-(3-(((3R,4S)-1-(2-cyanophenyl)-3-methylpiperidin-4-yl)amino)-2,4,6-trimethylbenzoyl)piperazin-1-yl)pyridine-3-sulfonamide] |  |  | < 5.00 | 6.00 to 8.00 |
| Cc1cc(C)c(C(=O)N2CCN(c3ncccc3S(N)(=O)=O)CC2)c(C)c1N[C@@H]1CCN(c2ccccc2C#N)C[C@@H]1C [I-179, 2-(4-(3-(((3S,4R)-1-(2-cyanophenyl)-3-methylpiperidin-4-yl)amino)-2,4,6-trimethylbenzoyl)piperazin-1-yl)pyridine-3-sulfonamide] |  |  | < 5.00 | 6.00 to 8.00 |
| Cc1cc(C)c(C(=O)N2CCN(c3ncccc3S(N)(=O)=O)CC2)c(C)c1N[C@@H]1CCN(c2ccccc2C#N)C[C@H]1C [I-180, 2-(4-(3-(((3R,4R)-1-(2-cyanophenyl)-3-methylpiperidin-4-yl)amino)-2,4,6-trimethylbenzoyl)piperazin-1-yl)pyridine-3-sulfonamide] |  |  | < 5.00 | 6.00 to 8.00 |
| Cc1cc(C)c(C(=O)N2CCN(c3ncccc3S(N)(=O)=O)CC2)c(C)c1N[C@H]1CCN(c2ccccc2C#N)C[C@@H]1C [I-181, 2-(4-(3-(((3S,4S)-1-(2-cyanophenyl)-3-methylpiperidin-4-yl)amino)-2,4,6-trimethylbenzoyl)piperazin-1-yl)pyridine-3-sulfonamide] |  |  | < 5.00 | 6.00 to 8.00 |
| Cc1cc(C)c(C(=O)N2CCN(c3ccccn3)[C@H](CO)C2)cc1NC1CCN(c2ccccc2OC(F)(F)F)CC1 [I-183, (S)-(2,4-dimethyl-5-(1-(2-(trifluoromethoxy)phenyl)piperidin-4-ylamino)phenyl)(3-(hydroxymethyl)-4-(pyridin-2-yl)piperazin-1-yl)methanone] |  |  | < 5.00 | 6.00 to 8.00 |
| Cc1cc(C)c(C(=O)N2CCN(c3ccccn3)[C@H](CO)C2)cc1NC1CCN(c2ccccc2OC(F)F)CC1 [I-184, (S)-(5-(1-(2-(difluoromethoxy)phenyl)piperidin-4-ylamino)-2,4-dimethylphenyl)(3-(hydroxymethyl)-4-(pyridin-2-yl)piperazin-1-yl)methanone] |  |  | < 5.00 | 6.00 to 8.00 |
| Cc1cc(C)c(C(=O)N2CCN(c3cccnc3S(N)(=O)=O)CC2)c(C)c1NC1CCN(c2ncccc2Cl)CC1 [I-185, 3-(4-(3-(1-(3-chloropyridin-2-yl)piperidin-4-ylamino)-2,4,6-trimethylbenzoyl)piperazin-1-yl)pyridine-2-sulfonamide] |  |  | < 5.00 | 6.00 to 8.00 |
| Cc1cc(C)c(C(=O)N2CCN(c3ncccc3S(N)(=O)=O)CC2)c(C)c1NC1CCN(c2ncccc2Cl)CC1 [I-186, 2-(4-(3-(1-(3-chloropyridin-2-yl)piperidin-4-ylamino)-2,4,6-trimethylbenzoyl)piperazin-1-yl)pyridine-3-sulfonamide] |  |  | < 5.00 | 6.00 to 8.00 |
| Cc1cc(C)c(C(=O)N2CCN(c3cccc(F)c3S(N)(=O)=O)CC2)cc1NC1CCN(c2c(F)cc(F)cc2C#N)CC1 [I-187, 2-(4-(5-(1-(2-cyano-4,6-difluorophenyl)piperidin-4-ylamino)-2,4-dimethylbenzoyl)piperazin-1-yl)-6-fluorobenzenesulfonamide] |  |  | < 5.00 | < 5.00 |
| Cc1cc(C)c(C(=O)N2CCN(c3ncccc3S(N)(=O)=O)C[C@@H]2C)c(C)c1NC1CCN(c2ccccc2C#N)CC1 [I-188, (S)-2-(4-(3-(1-(2-cyanophenyl)piperidin-4-ylamino)-2,4,6-trimethylbenzoyl)-3-methylpiperazin-1-yl)pyridine-3-sulfonamide] |  |  | < 5.00 | 5.52 to 6.00 |
| Cc1cc(C)c(C(=O)N2CCN(c3cccc(F)c3[S@@](C)(=N)=O)C[C@@H]2C)c(C)c1NC1CCN(c2ccccc2C#N)CC1 [I-189, 2-(4-(3-((S)-4-(3-fluoro-2-((S)-S-methylsulfonimidoyl)phenyl)-2-methylpiperazine-1-carbonyl)-2,4,6-trimethylphenylamino)piperidin-1-yl)benzonitrile] |  |  | < 5.00 | 6.00 to 8.00 |
| Cc1cc(C)c(C(=O)N2CCN(c3cccc(F)c3[S@](C)(=N)=O)C[C@@H]2C)c(C)c1NC1CCN(c2ccccc2C#N)CC1 [I-190, 2-(4-(3-((S)-4-(3-fluoro-2-((R)-S-methylsulfonimidoyl)phenyl)-2-methylpiperazine-1-carbonyl)-2,4,6-trimethylphenylamino)piperidin-1-yl)benzonitrile] |  |  | < 5.00 | 6.00 to 8.00 |
| Cc1cc(C)c(C(=O)N2CCN(c3cccc(F)c3[S@](C)(=N)=O)C[C@@H]2C)c(C)c1NC1CCN(c2ccccc2C#N)CC1 [I-192, 2-(4-(3-((2S)-4-(3-fluoro-2-(S-methylsulfonimidoyl)phenyl)-2-methylpiperazine-1-carbonyl)-2,4,6-trimethylphenylamino)piperidin-1-yl)benzonitrile] |  | 6.00 to 8.00 |  |  |
| Cc1cc(C)c(C(=O)N2CCN(c3ncccc3S(N)(=O)=O)C[C@@H]2C)c(C)c1NC1CCN(c2ccc(F)cc2C#N)CC1 [I-193, (S)-2-(4-(3-(1-(2-cyano-4-fluorophenyl)piperidin-4-ylamino)-2,4,6-trimethylbenzoyl)-3-methylpiperazin-1-yl)pyridine-3-sulfonamide] |  |  | < 5.00 | 5.52 to 6.00 |
